Data as given in PubChem BioAssay AID328 (DTP/NCI, 2004).
Several values for one entry are separate records, joined by “and”; a condition that tells them apart may be missing. Identical values can stand only once. Inconclusive results and toxic doses are left out. The calls were made as follows: active = survival T/C of 150% or more; inactive = T/C below 125% in these data.

Test system: BDF1 mice, P388 leukemia ip, median survival T/C
Assay: NCI In Vivo Anticancer Drug Screen. Data for tumor model P388 Leukemia (intraperitoneal) in B6D2F1 (BDF1) mice
Details: endpoint: median survival time, higher = longer survival
Method in brief: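 In tumour-bearing mice, survival after compound treatment is set against the vehicle group and given as a quotient.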

[1] = dose: 12.5 mg/kg/injection, schedule: Q01DX009 (ip), vehicle: saline with Tween-80
[2] = dose: 25.0 mg/kg/injection, schedule: Q01DX009 (ip), vehicle: saline with Tween-80
[3] = dose: 50.0 mg/kg/injection, schedule: Q01DX009 (ip), vehicle: saline with Tween-80
[4] = dose: 100.0 mg/kg/injection, schedule: Q01DX009 (ip), vehicle: saline with Tween-80
[5] = dose: 200.0 mg/kg/injection, schedule: Q01DX009 (ip), vehicle: saline with Tween-80
[6] = dose: 100.0 mg/kg/injection, schedule: Q04DX003 (ip), vehicle: saline with Tween-80
[7] = dose: 100.0 mg/kg/injection, schedule: Q04DX003 (ip), vehicle: saline
[8] = dose: 200.0 mg/kg/injection, schedule: Q04DX003 (ip), vehicle: saline
[9] = dose: 400.0 mg/kg/injection, schedule: Q04DX003 (ip), vehicle: saline
[10] = dose: 12.5 mg/kg/injection, schedule: Q01DX009 (ip), vehicle: Klucel (hydroxypropylcellulose) (HPC)
[11] = dose: 25.0 mg/kg/injection, schedule: Q01DX009 (ip), vehicle: Klucel (hydroxypropylcellulose) (HPC)
[12] = dose: 50.0 mg/kg/injection, schedule: Q01DX009 (ip), vehicle: Klucel (hydroxypropylcellulose) (HPC)
[13] = dose: 100.0 mg/kg/injection, schedule: Q04DX003 (ip), vehicle: Klucel (hydroxypropylcellulose) (HPC)
[14] = dose: 200.0 mg/kg/injection, schedule: Q04DX003 (ip), vehicle: Klucel (hydroxypropylcellulose) (HPC)
[15] = dose: 200.0 mg/kg/injection, schedule: Q04DX003 (ip), vehicle: saline sonified

Measured: T/C

COC(=O)c1ccc(=O)c2nc3/c(=C/O)c(O)cc(=O)c3[nH]c12
inactive: dose: 12.5 micrograms/kg/injection, schedule: Q01DX009 (ip), vehicle: Klucel (hydroxypropylcellulose) (HPC) 101 % of control | dose: 25.0 micrograms/kg/injection, schedule: Q01DX009 (ip), vehicle: Klucel (hydroxypropylcellulose) (HPC) 97 % of control | dose: 50.0 micrograms/kg/injection, schedule: Q01DX009 (ip), vehicle: Klucel (hydroxypropylcellulose) (HPC) 97 % of control | dose: 99.0 micrograms/kg/injection, schedule: Q01DX009 (ip), vehicle: saline 100 % of control | dose: 150.0 micrograms/kg/injection, schedule: Q01DX009 (ip), vehicle: saline 109 % of control | dose: 225.0 micrograms/kg/injection, schedule: Q01DX009 (ip), vehicle: saline 113 % of control

Nc1ccc(C(OC(=O)c2cc3ccccc3c(Cc3c(O)c(C(=O)OC(c4ccc(N)cc4)(c4ccc(N)cc4)c4ccc(N)cc4)cc4ccccc34)c2O)(c2ccc(N)cc2)c2ccc(N)cc2)cc1
active: [1] 150 % of control

Cc1nc2nc(C(F)(F)F)[nH]c2nc1C
inactive: [2] 99 % of control | [3] 105 % of control | [4] 102 % of control | [5] 94 % of control

OC(Cc1ccc2ccccc2n1)C(Cl)(Cl)Cl (stereo not given)
inactive: dose: 3.12 mg/kg/injection, schedule: Q01DX009 (ip), vehicle: saline with Tween-80 95 % of control | dose: 6.25 mg/kg/injection, schedule: Q01DX009 (ip), vehicle: saline with Tween-80 100 % of control | [1] 100 % of control | dose: 12.5 mg/kg/injection, schedule: Q04DX003 (ip), vehicle: saline with Tween-80 100 % of control | [2] 92 % of control | dose: 25.0 mg/kg/injection, schedule: Q04DX003 (ip), vehicle: saline with Tween-80 105 % of control | [3] 90 % of control | dose: 50.0 mg/kg/injection, schedule: Q04DX003 (ip), vehicle: saline with Tween-80 100 % of control | [6] 91 % of control

CCCCCCCCSSCCCCCCCC
inactive: [7] 95 % of control | [8] 100 % of control | [9] 95 % of control

CCC(CO)N1CNC(=S)NC1 (stereo not given)
inactive: dose: 50.0 mg/kg/injection, schedule: Q01DX009 (ip), vehicle: saline 97 % of control | dose: 100.0 mg/kg/injection, schedule: Q01DX009 (ip), vehicle: saline 92 % of control | dose: 200.0 mg/kg/injection, schedule: Q01DX009 (ip), vehicle: saline 108 % of control

O=C(O)CCCc1ccc(N(CCCl)CCCl)cc1
inactive: dose: 0.25 mg/kg/injection, schedule: Q01DX009 (ip), vehicle: Klucel (hydroxypropylcellulose) (HPC) 123 % of control | dose: 0.5 mg/kg/injection, schedule: Q01DX009 (ip), vehicle: Klucel (hydroxypropylcellulose) (HPC) 105 % of control | dose: 3.0 mg/kg/injection, schedule: Q01DX009 (ip), vehicle: saline 99 % of control and 100 % of control | dose: 3.13 mg/kg/injection, schedule: Q01DX010 (ip), vehicle: saline 100 % of control | dose: 6.0 mg/kg/injection, schedule: Q01DX009 (ip), vehicle: saline 105 % of control | dose: 12.0 mg/kg/injection, schedule: Q01DX009 (ip), vehicle: saline 122 % of control | dose: 24.0 mg/kg/injection, schedule: Q01DX009 (ip), vehicle: saline 88 % of control
active: dose: 1.5 mg/kg/injection, schedule: Q01DX009 (ip), vehicle: Klucel (hydroxypropylcellulose) (HPC) 171 % of control | dose: 2.0 mg/kg/injection, schedule: Q01DX009 (ip), vehicle: Klucel (hydroxypropylcellulose) (HPC) 165 % of control | dose: 12.5 mg/kg/injection, schedule: Q01DX010 (ip), vehicle: saline 172 % of control

O=C1CN(CN2CCCCC2)C(=O)CN1CN1CCCCC1
inactive: [10] 115 % of control | [11] 117 % of control | [12] 92 % of control and 100 % of control | [13] 120 % of control | [14] 108 % of control

Cc1[nH]nc(-c2ccon2)c1N=O
inactive: [3] 111 % of control | [4] 113 % of control

CC(C)C(Sc1nc(N)nc2nc[nH]c12)C(=O)O (stereo not given)
inactive: dose: 100.0 mg/kg/injection, schedule: Q04DX003 (ip), vehicle: saline sonified 110 % of control | [15] 120 % of control | dose: 400.0 mg/kg/injection, schedule: Q04DX003 (ip), vehicle: saline sonified 105 % of control

COc1ccc(CCO)cc1OC
inactive: dose: 50.0 mg/kg/injection, schedule: Q01DX009 (ip), vehicle: water 97 % of control | dose: 100.0 mg/kg/injection, schedule: Q01DX009 (ip), vehicle: water 100 % of control | dose: 100.0 mg/kg/injection, schedule: Q04DX003 (ip), vehicle: water 99 % of control | dose: 200.0 mg/kg/injection, schedule: Q01DX009 (ip), vehicle: water 96 % of control | dose: 200.0 mg/kg/injection, schedule: Q04DX003 (ip), vehicle: water 106 % of control | dose: 400.0 mg/kg/injection, schedule: Q01DX009 (ip), vehicle: water 96 % of control

O=CC(S)CO (stereo not given)
inactive: dose: 12.5 mg/kg/injection, schedule: Q01DX010 (ip), vehicle: carboxymethylcellulose (CMC) 122 % of control | dose: 25.0 mg/kg/injection, schedule: Q01DX010 (ip), vehicle: carboxymethylcellulose (CMC) 122 % of control
active: dose: 50.0 mg/kg/injection, schedule: Q01DX010 (ip), vehicle: carboxymethylcellulose (CMC) 166 % of control | dose: 100.0 mg/kg/injection, schedule: Q01DX010 (ip), vehicle: carboxymethylcellulose (CMC) 166 % of control

CN(C)c1ccc(C=C2C(=O)CC(C)(C)CC2=O)cc1
inactive: [3] 105 % of control | [4] 95 % of control | [5] 97 % of control

NCCSC(c1ccccc1)c1ccccc1
inactive: [12] 100 % of control | dose: 100.0 mg/kg/injection, schedule: Q01DX009 (ip), vehicle: Klucel (hydroxypropylcellulose) (HPC) 105 % of control

CC(=O)NCCC(C)C
inactive: [7] 104 % of control | [8] 113 % of control | [9] 109 % of control

O=[N+]([O-])/C=C/c1ccc2ccccc2c1
inactive: dose: 88.0 mg/kg/injection, schedule: Q04DX003 (ip), vehicle: saline sonified 116 % of control | dose: 100.0 mg/kg/injection, schedule: Q01DX009 (ip), vehicle: saline sonified 100 % of control | [6] 120 % of control | dose: 132.0 mg/kg/injection, schedule: Q04DX003 (ip), vehicle: saline sonified 116 % of control | [15] 111 % of control | dose: 300.0 mg/kg/injection, schedule: Q04DX003 (ip), vehicle: saline sonified 116 % of control | dose: 400.0 mg/kg/injection, schedule: Q04DX003 (ip), vehicle: saline with Tween-80 90 % of control

CCCCC(C(=O)OCC)C(CCC1CCCCC1)(C(=O)OCC)C(=O)OCC (stereo not given)
inactive: [13] 91 % of control | [14] 87 % of control | dose: 400.0 mg/kg/injection, schedule: Q04DX003 (ip), vehicle: Klucel (hydroxypropylcellulose) (HPC) 100 % of control

CC(O)C#CC(C)O (stereo not given)
inactive: [10] 91 % of control | dose: 12.5 mg/kg/injection, schedule: Q04DX003 (ip), vehicle: Klucel (hydroxypropylcellulose) (HPC) 118 % of control | [11] 91 % of control | dose: 25.0 mg/kg/injection, schedule: Q04DX003 (ip), vehicle: Klucel (hydroxypropylcellulose) (HPC) 104 % of control | [12] 95 % of control | dose: 50.0 mg/kg/injection, schedule: Q04DX003 (ip), vehicle: Klucel (hydroxypropylcellulose) (HPC) 109 % of control

O=S(=O)(O)C(I)(I)S(=O)(=O)O
inactive: [7] 100 % of control | [8] 95 % of control | [9] 104 % of control

CN1CC2OC2C2C1N2C#N (stereo not given)
inactive: dose: 25.0 mg/kg/injection, schedule: Q01DX005 (ip), vehicle: saline 97 % of control | dose: 50.0 mg/kg/injection, schedule: Q01DX005 (ip), vehicle: saline 106 % of control | dose: 100.0 mg/kg/injection, schedule: Q01DX005 (ip), vehicle: saline 111 % of control | dose: 200.0 mg/kg/injection, schedule: Q01DX005 (ip), vehicle: saline 115 % of control

Cc1cc(=O)cc(C)n1C
inactive: [4] 104 % of control | [5] 100 % of control | dose: 400.0 mg/kg/injection, schedule: Q01DX009 (ip), vehicle: saline with Tween-80 100 % of control
